The text below walks through data of patent US10626135B2, “Crystal forms of sodium-glucose co-transporter inhibitor, processes for preparation and use thereof” (CRYSTAL PHARMACEUTICAL (SUZHOU) CO., LTD., priority 2016, dated 2020).

In brackets after ≈: the same amount, converted by molar mass. Entries after “also recorded” stand apart in the source; their conditions may differ.

Assay type in all cases: physicochemical
A short description of data set [1]: Stability study: mixture of forms stirred in solvent systems with different water activity, residual solid by XRPD. The settings on record: high water activity (high humidity, ≥50% RH). The source says:
The mixture of existing crystalline Form 2 disclosed in CN102112483A, Form I and Form II was stirred in several solvent systems with different water activity (aw).
It should be noted that the solvent systems for different water activity (aw) include but not limit to H2O and IPA. The same conclusion could be drawn with this experiment in other solvent systems suitable for the preparation of different water activity (aw).

Data set [2] is described as follows: Hygroscopicity assessment by dynamic vapor sorption (DVS). The settings on record: 25° C., cycle 20%-95%-0%-95% RH. As for the experimental part:
Dynamic Vapor Sorption (DVS) is measured via a SMS (Surface Measurement Systems Ltd.) intrinsic DVS. Typical Parameters for DVS test are as follows: Temperature: 25° C. Gas and flow rate: N2, 200 mL/min dm/dt: 0.002%/min Relative Humidity (RH) range: 20% RH-95% RH-0% RH-95% RH Dynamic vapor sorption (DVS) was applied to test hygroscopicity of crystalline Form I with 13.8 mg of sample Form I at 25° C. The weight gains at each relative humidity were recorded in a cycle of 20%-95%-0%-95% RH. […] Dynamic vapor sorption (DVS) was applied to test hygroscopicity of Form VII with 11.5 mg of sample Form VII at 25° C. The weight gains at each relative humidity were recorded in a cycle of 0%-95%-0% RH.

A short description of data set [3]: Dynamic solubility in SGF (simulated gastric fluids), HPLC. As for the experimental part: The HPLC method parameters for solubility test in the present disclosure are as follows:
Saturated solutions of Form I, Form II, Form III, Form VII and the existing crystalline Form 2 in SGF (Simulated gastric fluids) were prepared. Saturated solutions of Form II, Form III, Form VII, Form VIII and the existing crystalline Form 2 in FaSSIF (Fasted state simulated intestinal fluids, pH=6.5) were prepared. After equilibrated for 1 hour, concentrations of the saturated solutions were measured by High Performance Liquid Chromatography (HPLC).

Data set [4] can be described thus: Stability study: storage at 25° C./60% RH and 40° C./75% RH, XRPD. To be noted: for Solid Form after storage: 3 months. As for the experimental part:
Form I, Form II, Form III and Form VI were stored under different conditions of 25° C./60% RH and 40° C./75% RH for 3 months. XRPD was applied to detect the crystalline forms. The XRPD overlay of Form I, Form II, Form III and Form VI before and after stored under above two conditions were shown in FIG. 44, FIG. 45, FIG. 46 and FIG. 47, respectively.

Data set [5] can be described thus: Morphology assessment by polarized light microscopy. As for the experimental part:
The existing crystalline Form 2 and Form I in the present disclosure were tested by polarized light microscopy. The PLM results of the Form 2 and Form I were shown in FIG. 48 and FIG. 49, respectively.

Data set [6] in a line: Particle size distribution assessment (laser particle size analyzer). The text has this:
The result of particle size distribution (PSD) in the present disclosure was acquired by laser particle size analyzer with S3500 model from Microtrac Company. The Microtrac S3500 is equipped with a SDC (Sample Delivery Controller) sampling system. This experiment uses a wet method and the dispersion medium is Isopar G. The method and parameters of the laser particle size analyzer are as follows: [table] Certain amount of Form I, Form V, Form VIII and existing crystalline Form 2 were taken for particle size distribution test, and the results were shown in Table 29.

Data set [7] is described as follows: Mechanical stability assessment: manual grinding, XRPD. To be noted: ground manually for 5 minutes in mortar. As for the experimental part:
Solid sample of Form I, Form VI and the existing crystalline Form 2 were ground manually for 5 minutes in mortar. XRPD was applied to detect the crystalline form.

On to `CCOc1ccc(Cc2cc([C@@H]3O[C@H](SC)[C@@H](O)[C@H](O)[C@H]3O)ccc2Cl)cc1` [Form I, (2S,3R,4R,5S,6R)-2-(4-chloro-3-(4-ethoxybenzyl)phenyl)-6-(methylthio)tetrahydro-2H-pyran-3,4,5-triol], for which, in data set [1], the “Stability in high water activity environment” value was “more stable than Form 2”. In data set [2], the “Weight gain under 80% RH” value is reported as 3.55%. The “Form change before and after DVS” value in data set [2] (XRPD) was “substantially unchanged; also recorded: No form change”. Further, the “Solubility 1 hour” value in data set [3] (Media: SGF, equilibrated for 1 hour) was 100 µg/mL (≈ 235 µM). In data set [3] (SGF, 1 hour), the “Solubility relative to existing crystalline Form 2” value is 1.7 times. Moreover, the Stability on storage result in data set [4] (25° C./60% RH and 40° C./75% RH for 3 months) is “good stability”. Further, the “Solid Form after storage” value in data set [4] (25° C./60% RH) is recorded as “Form I (the middle”. Further, in data set [4] (40° C./75% RH), the “Solid Form after storage” value is on record as “Form I (the bottom”. In addition, the “Crystal shape (PLM)” value in data set [5] was “rod-like shape”. Also, the “Particle size distribution (description)” value in data set [6] was “narrow and normal”. Besides, in data set [6] (wet method, Isopar G), the D10 was found to be 3.34 μm, the D50 was 8.97 μm, the D90 is recorded as 31.63 μm and the “MV (average particle size based on volume)” value is reported as 14.48 μm. For the same molecule, in data set [7], the Crystallinity entry is “Decreased (Slightly”, the Final form result is reported as “no crystalline form change; also recorded: Form I” and the Mechanical stability result is on record as “better mechanical stability”.
